The values below come from PubChem BioAssay AID2630 (Broad Institute, 2010).

The test system of the assay is T. cruzi beta-gal in NIH3T3, GalScreen luminescence, 90 h. Nature of the assay: T. cruzi infection blockers in NIH3T3 cells – beta-gal luminescence, NIH3T3 host cells, confirmation (AID 2630).

pEC50: −log10 of the molar value. “And” between values parts separate entries of the source, which are not always exact repeats. Equal entries are not always repeated. Results filed as inconclusive are left out.

`CN(Cc1ccccc1)C(=O)C1CCCN(Cc2cccc(Cl)c2)C1` (configuration not stated): the pEC50 was 6.64 and 7.46.

Consider `CC(C)Oc1cccc(C(=O)C2CCCN(Cc3cnn(C(C)C)c3)C2)c1` (configuration not stated), for which the pEC50 is 7.17 and 7.78.

By pEC50 is commonly meant −log10 of the EC50, conventionally taken in molar units.
